Measurements published in US20250306007A1, “DETECTING APOPTOTIC BODIES BY IMPEDANCE CYTOMETRY AS AN INDICATOR OF DRUG SENSITIVITY” (University of Virginia Patent Foundation, priority 2022, published 2025).

What was measured:
[1] = tested on: highly tumorigenic cells derived from the xenograft 122 (patient-derived tumor cells); experiment: cell proliferation assays comparing phenotypes over drug concentration ranges; type: cell-based
From the text: FIG. 1B is a schematic example of a progression of drug resistance onset of in vitro cancer cells. In an example, a tumor tissue sample 120 can be collected from a cancer patient 118 such as via surgical resection or biopsy. Cells from the tumor tissue sample 120 can be propagated, e.g., within immunocompromised mice as a xenograft 122. […] Once propagated, the line established from the xenograft 122 can be maintained in culture for treatment from a chemotherapeutic drug 124, such as gemcitabine, a fluorouracil, doxorubicin, or any other drug used in the treatment of cancer. In an example involving gemcitabine treatment on highly tumorigenic cells derived from the xenograft 122, the range of gemcitabine levels that lead to drug sensitivity can be assessed by cell proliferation assays 126. Depending on the drug treatment, the in vitro cancer cells can be drug resistant, e.g., with varying degrees of resistance to one or more drugs. The CAFs can also be further propagated in vitro and subjected to additional drug treatment(s) to further examine the drug resistance of the cancer cells. […] These structures can be associated with apoptosis-induced cell disassembly, which generates ABs of particular composition and structure. These phenotypes can be used as a model to help identify and stratify ABs in subsequent patient-derived tumor cells using impedance cytometry techniques based on comparison of their single-particle sensitivity levels.

[2] = tested on: cancer cells lifted from the culture (gemcitabine-treated pancreatic tumor cultures); experiment: impedance cytometry of cancer cell samples exposed to chemotherapeutic drug; type: cell-based; conditions: about 48 hours, FIG. 2A/2B
From the text: Individual cells from the biological sample or culture 102 can flow (e.g., propelled via a focusing flow channel of the impedance cytometry device 104) through the main channel 114 of the test cell 106 at a specified throughput (e.g., within a range of about 200 cells/s to about 500 cells/s) past electrodes or microelectrodes under an AC electric field applied over a specified range of frequencies (e.g., within a range between about 0.5 megahertz (MHz) to 50 MHz). In an example, an impedance of respective detected specimen can be measured by the measurement circuitry 108 concurrently or simultaneously using a plurality of discrete frequencies, e.g., a reference frequency within a range of about 15 MHz and about 20 MHz, and one or more analysis frequencies within a specified analysis frequency range. […] The electrophysiology of the cancer cells lifted from the culture after various gemcitabine treatment conditions can be measured by impedance cytometry to determine impedance magnitude (|Z|) and impedance phase (ϕZ) at a low (0.5 MHz) and a high frequency (18 MHz) for analyzing individual cellular 204 and/or sub-cellular 202 events. […] At a specified threshold frequency (e.g., at about 18 MHz), the impedance signal can be effectively determined by the dielectric properties of the cell interior, rather than properties the cell exterior. […]

## Nc1ccn([C@@H]2O[C@H](CO)[C@@H](O)C2(F)F)c(=O)n1 [chemotherapeutic drug 124, gemcitabine]
[1]; at about 0.01 μg mL^−1
  phenotype (apoptosis-induced cell disassembly structures): generation of blebs of varying size on the plasma membrane
[1]; at about 0.1 μg mL^−1
  phenotype (apoptosis-induced cell disassembly structures): presence of large protrusions
[1]; at about 1 μg mL^−1
  phenotype (apoptosis-induced cell disassembly structures): emergence of beaded structures
[2]; increasing drug concentration 0.01, 0.1, 1 μg mL^−1 vs untreated
  sub-cellular events (release of ABs): rise in sub-cellular events 202
[2]; increasing drug concentration
  impedance phase at 18 MHz (ϕZ18 MHz), cellular and sub-cellular populations: downward shift in ϕZ18 MHz
